The values below come from patent publication US8802726B2, “Use of nitrooxyderivative of drug for the treatment of muscular dystrophies” (Nicox S.A., priority 2006, dated 2014).

Assay [1] concerns α-sarcoglycan (SG)-null C57BL/6 mice. The assay is described as follows: Creatine kinase activity measurements in serum, muscular dystrophy model. In kind it is in vivo. The settings on record: daily in the diet, Ib 100, XXXVb 12, IIIb 30, prednisolone 3 mg/kg. As for the experimental part:
(§1) Muscular Dystrophy Model (α-Sarcoglycan-Deficient Mice)
(§2) • 2-acetyloxy benzoic acid 3-(nitrooxymethyl)benzoate of formula (Ib); • pravastatin 4-(nitrooxy)butyl ester which of formula (XXXVb); • 2-fluoro-alfa-methyl-4[1,1′-biphenyl]4-acetic acid 4-nitrooxybutyl ester of formula (IIIb); • prednisolone as reference corticosteroid drug. […] At indicated time-points (ranging from 20 to 80 days) skeletal muscle function was tested by the free wheel test. 24 hours later animals were sacrificed, tissue isolated and histological characteristics analysed. Infiltrates were assessed after staining with the Azan Mallory technique; Necrotic fibres were measured in hematoxilin-stained sections; creatin kinase was measured using a commercially available kit on blood samples obtained 24 hours prior to the wheel test. […] Free Wheel Running: Voluntary wheel running was used as the exercise paradigm to avoid any physiological changes that may occur due to the stress of forced treadmill running. Mice were housed singly for a 24 hour period in a polycarbonate running wheel equipped with a magnetic counter, the output of which was sent to a speedometer, allowing quantification of the number of revolutions per day. Creatine Kinase Activity Measurements: quantitative and kinetic determination of creatine kinase activity in serum of control and drug treated-animals was measured using creatine kinase reagent (Sigma), according to the manufacturer's instructions. Blood was collected from tail of 2-7 months-old mice and serum obtained after centrifugation at 13.000 rpm for 10 minutes was stored at −80° C. before measurements. Histology: Diaphragm and tibialis anterior of untreated and drug-treated mice were isolated and included in Killik frozen section medium, quickly frozen and cut into 8-μm thick sections with the muscle fibres oriented transversely using a cryostat. Sections were stained with either Hematoxylin & Eosin or Azan Mallory, to evaluate the number of inflammatory infiltrates and necrotic fibres ([…] for tissue).

For assay [2] the test system is unchanged. The assay is described as follows: Free wheel running test (voluntary wheel running), muscular dystrophy model. The class given is in vivo. The settings on record: daily in the diet. Here is the method: as §1, §2
Assay [3] shares this test system. The assay is described as follows: Histology of diaphragm and tibialis anterior (inflammatory infiltrates, necrotic fibres), muscular dystrophy model. In kind it is in vivo. The settings on record: for Overall effect on histological, functional and biochemical alterations (in words): α-SG-null mice, 20 to 80 days, summary of tables 1 and 2. As for the experimental part:
as §1, §2

The subject of assay [4] is α-SG-null mice. The assay can be described thus: In vivo functional test: resistance to fatigue (exhaustion) by treadmill. The settings on record: for Extent of the benefit (%) on exhaustion time, treated vs untreated mice: in the diet. As for the experimental part: The effectiveness of naproxcinod, isosorbide dinitrate (ISD) alone and in combination with ibuprofen, molsidomine and prednisolone were evaluated using a test of functional recovery in a mouse model of muscular dystrophy (α-SG-null mice). The experiments to assess the functional recovery in α-SG-null mice were performed according to the following experimental protocol. All experiments and functional evaluations were performed by the same operator in the same laboratory.
α-SG-null mice were housed in a pathogen-free facility, treated in accordance with the European Community Guidelines and with the approval of the Institutional Ethical Committee. Mice were given the following treatments: 3 mg/kg of molsidomine, 30 mg/kg of naproxcinod, 30 mg/kg of ISD alone and in combination with 50 mg/kg of ibuprofen, or 2 mg/kg of prednisolone incorporated in the diet. Control groups received the same diet without any drugs. Standard diet and diets containing the drugs were prepared based on the daily food intake of 3 g. Mice were treated starting at 1 month of age.
Analyses were carried out using a six-lane motorized treadmill (Exeter 3/6 treadmill, Columbus Instruments, OH, USA) supplied with shocker plates. The initial trials were performed at low intensity and for a short duration of time to get mice accustomed to the exercise; the treadmill was then run without inclination at 5 m/min for 5 min, after which the speed was increased 1 m/min every 3 min until a speed of 10 m/min was reached. The test was stopped when the mouse remained on the shocker for 20 sec without attempting to reengage the treadmill.
The extent of benefit (%) is expressed as the percent of the improvement of treated mice (diet containing the drug) compared to untreated mice (standard diet) on the exhaustion time.

Setting [5] is: 20 days of treatment, Ib 100, XXXVb 12, IIIb 30, prednisolone 3 mg/kg.
Where [6] appears, read: 40 days of treatment, Ib 100, XXXVb 12 mg/kg.
Setting [7] is: 60 days of treatment, Ib 100, XXXVb 12 mg/kg.
Where [8] appears, read: 80 days of treatment, daily in the diet, Ib 100 mg/kg, XXXVb 12 mg/kg, IIIb 30 mg/kg, prednisolone 3 mg/kg.
[9] abbreviates: 80 days of treatment, daily in the diet, Ib 100 mg/kg, XXXVb 12 mg/kg, IIIb 30 mg/kg, prednisolone 3 mg/kg, Azan Mallory staining.

Structures are written as SMILES. Marks after values point to notes of the source that are not given here.

Regarding `CC(C(=O)OCCCCO[N+](=O)[O-])c1ccc(-c2ccccc2)c(F)c1` (centres unmarked) [(IIIb), 2-fluoro-alfa-methyl-4[1,1′-biphenyl]4-acetic acid 4-nitrooxybutyl ester], the CK plasma level is 662.6 ± 41 U/ml in assay [1] (20 days of treatment), 824.0 ± 90.5 U/ml in assay [1] (40 days of treatment), 648.2 ± 25.2 U/ml in assay [1] (60 days of treatment) and 482.3 ± 51.2 U/ml in assay [1] (80 days of treatment). Further, the Free wheel test in assay [2] (setting [5]) is 0.95 ± 0.1 km/24 h. Also, in assay [3] (mouse, in vivo), the “N° of inflammatory Infiltrates/section” value is 84.2 ± 22.5. Also, the “N° of necrotic Fibres/section” value in assay [3] (mouse, in vivo) was 48.4 ± 2.3. Further, in assay [3] (daily in the diet), the “Overall effect on histological, functional and biochemical alterations (in words)” value (shortened to “Overall effect on histological”) was “significantly effective in reducing the histological, functional and biochemical alterations”.
Consider `CC[C@H](C)C(=O)O[C@H]1C[C@H](O)C=C2C=C[C@H](C)[C@H](CCC(O)C[C@H](O)CC(=O)OCCCCO[N+](=O)[O-])[C@H]21` (relative stereo) [(XXXVb), [1S-[1α(βS*,δS*),2α,6α,8β-(R*),8aα]]-1,2,6,7,8,8a-hexahydro-β,δ,6-trihydroxy-2-methyl-8-(2-methyl-1-oxobutoxy)-1-naphthaleneheptanoic acid 4-(nitrooxy)butyl ester], for which the CK plasma level in assay [1] (20 days of treatment) was 440.6 ± 33**^ U/ml; in assay [1] (40 days of treatment) it was 488.2 ± 96.5 U/ml; in assay [1] (60 days of treatment), 627.4 ± 69.3 U/ml; in assay [1] (80 days of treatment), 614.8 ± 37**^ U/ml. The Free wheel test is listed as 0.55 ± 0.03 km/24 h in assay [2] (setting [5]); 0.58 ± 0.01 km/24 h in assay [2] (setting [6]); 0.54 ± 0.03 km/24 h in assay [2] (setting [7]); 0.65 ± 0.05 km/24 h in assay [2] (80 days of treatment, XXXVb 12 mg/kg). For the same compound, the “N° of necrotic Fibres/section” value in assay [3] (setting [8]) was 35 ± 2.1. Moreover, the “N° of inflammatory Infiltrates/section” value in assay [3] (setting [9]) amounted to 54.2 ± 8.05. In addition, in assay [3] (daily in the diet), the “Overall effect on histological” value was “significantly effective in reducing the histological, functional and biochemical alterations”.
`CC(=O)Oc1ccccc1C(=O)Oc1cccc(CO[N+](=O)[O-])c1` [(Ib), 2-(acetyloxy)benzoic acid 3-(nitrooxymethyl)phenyl ester]: the CK plasma level in assay [1] (20 days of treatment) worked out at 665.6 ± 51 U/ml; in assay [1] (40 days of treatment), 944.0 ± 95.5 U/ml; in assay [1] (60 days of treatment), 444.2 ± 20.2 U/ml; in assay [1] (80 days of treatment), 494.6 ± 56.1 U/ml. Besides, the Free wheel test is given as 0.65 ± 0.07 km/24 h in assay [2] (setting [5]), 0.42 ± 0.08 km/24 h in assay [2] (setting [6]) and 0.31 ± 0.1 km/24 h in assay [2] (setting [7]). Further, in assay [3] (setting [8]), the “N° of necrotic Fibres/section” value is on record as 124.1 ± 33. Also, the “N° of inflammatory Infiltrates/section” value in assay [3] (setting [9]) came out at 91.3 ± 34.5. The “Overall effect on histological” value in assay [3] (daily in the diet) was “significantly effective in reducing the histological, functional and biochemical alterations”.
`COc1ccc2cc([C@H](C)C(=O)OCCCCO[N+](=O)[O-])ccc2c1` [naproxcinod]: in assay [4] (4 months of treatment, naproxcinod 30 mg/kg, ISD 30 mg/kg, ibuprofen 50 mg/kg), the “Extent of the benefit (%) on exhaustion time, treated vs untreated mice” value (from here on “Extent of the benefit (%)”) was determined as 150%. For the same compound, the “Amelioration of muscle function (in words)” value in assay [4] (compared to molsidomine, ISD alone, ISD and ibuprofen, or prednisolone) was “superior amelioration of the muscle function”.
In the case of `C[C@]12C=CC(=O)C=C1CC[C@@H]1[C@@H]2[C@@H](O)C[C@@]2(C)[C@H]1CC[C@]2(O)C(=O)CO` [Prednisolone, prednisolone, reference compound], the “Extent of the benefit (%)” value is reported as 117% in assay [4] (6 months of treatment, prednisolone 2 mg/kg) and 100% in assay [4] (12 months of treatment, prednisolone 2 mg/kg). The CK plasma level is 440.6 ± 33**^ U/ml in assay [1] (20 days of treatment), 488.2 ± 96.5 U/ml in assay [1] (40 days of treatment), 711.3 ± 69.3 U/ml in assay [1] (60 days of treatment) and 717.6 ± 31.1 U/ml in assay [1] (80 days of treatment). The compound further registered a Free wheel test in assay [2] (setting [5]) of 0.55 ± 0.1 km/24 h. Moreover, in assay [3] (setting [8]), the “N° of necrotic Fibres/section” value is 197.1 ± 23. Moreover, the “N° of inflammatory Infiltrates/section” value in assay [3] (setting [9]) is reported as 59.4 ± 7.00.
Regarding `CCOC(=O)[N-]c1cn(N2CCOCC2)n[o+]1` [molsidomine], the “Extent of the benefit (%)” value in assay [4] (8 months of treatment, molsidomine 3 mg/kg, ISD 30 mg/kg, ibuprofen 50 mg/kg) was 63%.
